Source: US8933098B2, “Dimethyl-benzoic acid compounds” (Eli Lilly and Company, priority 2012, dated 2015)

What was measured:
[1] = target: human EP1 (Homo sapiens (Human), UniProt P34995); assay: In vitro binding to human EP1, [3H]-PGE2 displacement on membranes; settings: HEK293 membranes, n = 1, read-out: hEP1, Ki
Method: (§1) hEP1 and hEP4 membranes are prepared from recombinant HEK293 cells stably expressing human EP1 (Genbank accession number AY275470) or EP4 (Genbank accession number AY429109) receptors. hEP2 and hEP3 membranes are prepared from HEK293 cells transiently transfected with EP2 (Genbank accession number AY275471) or EP3 (isoform VI: Genbank accession number AY429108) receptor plasmids. Frozen cell pellets are homogenized in homogenization buffer using a Teflon/glass homogenizer. Membrane protein is aliquoted and quick frozen on dry ice prior to storage at −80° C. Homogenization buffer contained 10 mM Tris-HCl, pH 7.4, 250 mM sucrose, 1 mM EDTA, 0.3 mM indomethacin and plus Complete™, with EDTA, obtained from Roche Molecular Biochemicals (Catalog Number 1 697 498).
(§2) Kd values for [3H]-PGE2 binding to each receptor are determined by saturation binding studies or homologous competition. Compounds are tested in a 96-well format using a three-fold dilution series to generate a 10-point curve. […] The membranes are harvested by filtration (TomTek harvester), washed 4 times with cold buffer (10 mM MES pH 6.0 with KOH, 10 mM MgCl2), dried in a 60° C. oven, and the radioactivity is quantified as counts per minute (CPM) using a TopCount detector. […]

[2] = target: human EP2 (Homo sapiens (Human), UniProt P43116); assay: In vitro binding to human EP2, [3H]-PGE2 displacement on membranes; settings: HEK293 membranes, n = 1, read-out: hEP2, Ki
Method: as §1, §2

[3] = target: human EP3 (isoform VI) (Homo sapiens, UniProt P43115); assay: In vitro binding to human EP3, [3H]-PGE2 displacement on membranes; settings: HEK293 membranes, n = 1, read-out: hEP3, Ki
Method: as §1, with “-80°” for “−80°”, “CompleteTM,” for “Complete™,”, “498). Kd values for [3H]-PGE2 binding to each receptor are determined by saturation binding studies or homologous competition. Compounds are tested in a 96-well format using a three-fold dilution series to generate a 10-point curve. […] The membranes are harvested by filtration (TomTek harvester), washed 4 times with cold buffer (10 mM MES pH 6.0 with KOH, 10 mM MgCl2), dried in a 60° C. oven, and the radioactivity is quantified as counts per minute (CPM) using a TopCount detector. […]” for “498).”

[4] = target: T1, human EP4 (Homo sapiens (Human), UniProt P35408); assay: In vitro binding to human EP4, [3H]-PGE2 displacement on membranes; settings: HEK293 membranes, n = 7, read-out: hEP4, Ki
Target sequence in this assay (P35408 whole entry, looked up): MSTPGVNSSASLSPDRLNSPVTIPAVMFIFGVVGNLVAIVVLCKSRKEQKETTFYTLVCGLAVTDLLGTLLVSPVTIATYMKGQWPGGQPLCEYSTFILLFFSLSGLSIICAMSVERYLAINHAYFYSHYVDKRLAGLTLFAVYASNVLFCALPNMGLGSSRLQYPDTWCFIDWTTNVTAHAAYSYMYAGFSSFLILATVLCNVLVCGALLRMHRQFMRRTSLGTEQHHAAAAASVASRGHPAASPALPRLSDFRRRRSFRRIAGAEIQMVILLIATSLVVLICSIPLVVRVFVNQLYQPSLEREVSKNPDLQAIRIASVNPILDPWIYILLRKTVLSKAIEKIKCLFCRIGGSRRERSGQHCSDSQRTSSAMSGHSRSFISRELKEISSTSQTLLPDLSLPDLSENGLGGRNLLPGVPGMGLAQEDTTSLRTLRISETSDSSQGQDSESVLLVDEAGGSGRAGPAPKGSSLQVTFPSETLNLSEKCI
Method: Compounds are tested in a 96-well format using a three-fold dilution series to generate a 10-point curve. […] The binding reaction is performed in 200 μL MES buffer (10 mM MES pH 6.0 with KOH, 10 mM MgCl2 and 1 mM EDTA) using 0.5 mL polystyrene 96-well deep-well plates. […] The membranes are harvested by filtration (TomTek harvester), washed 4 times with cold buffer (10 mM MES pH 6.0 with KOH, 10 mM MgCl2), dried in a 60° C. oven, and the radioactivity is quantified as counts per minute (CPM) using a TopCount detector. […] Data are analyzed using a 4-parameter nonlinear logistic equation (ABase Equation 205) as shown: y=(A+((B−A)/(1+((C/x)^D)))) where, y=% specific inhibition, A=bottom of the curve; B=top of the curve; C=relative IC50 concentration causing 50% inhibition based on the range of the data from top to bottom; D=Hill, Slope=slope of the curve. Ki conversion from IC50 Values (Ki=IC50/(1+[L]/Kd) where [L] is the ligand concentration).

[5] = target: T1, human EP4; assay: In vitro human EP4 functional antagonist activity (PGE2-stimulated cAMP, HTRF); type: cell-based; settings: read-out: IC50 measured at human EP4
Source text: The raw data are converted to cAMP amount (pmole/well) using a cAMP standard curve generated for each experiment.
Target sequence in this assay (P35408 whole entry): as the sequence (P35408 whole entry, looked up) above

[6] = target: rat EP4 (Rattus norvegicus (Rat), UniProt P43114); assay: In vitro rat EP4 functional antagonist activity (PGE2-stimulated cAMP, HTRF); type: cell-based; settings: inhibition of PGE2-stimulated (EC80) cAMP production, HEK293 cells expressing rat EP4; read-out: IC50 measured at rat EP4
Method: To test EP4 antagonist compounds in rEP4 cells, thaw the frozen cells and then resuspend cells in cAMP assay buffer. The cAMP buffer is made by HBSS without Phenol Red (Hyclone, SH30268) supplemented with 20 mM HEPES (Hyclone, SH30237), 0.1% BSA (Gibco, 15260) and 125 μM IBMX (Sigma, 15879). The cells are plated into 96-well half area flat-bottom polystyrene black plates (Costar 3694). […] The cAMP levels generated from the cells are quantified by a cAMP HTRF assay kit (Cisbio 62AM4PEC). The plates are read on an EnVision plate reader using HTRF optimized protocol (PerkinElmer). IC50's are calculated using Graphpad Prism (v. 4) nonlinear regression, sigmoidal dose response curve fitting.

[7] = target: T1, human EP4; assay: In vitro antagonist activity in human whole blood (reversal of PGE2 inhibition of LPS-induced TNFα production); type: cell-based; settings: read-out: IC50 measured at human EP4, human blood TNFα induction assay
Target sequence in this assay (P35408 whole entry, looked up): as above
Method: Blood is collected from normal volunteer donors into sodium heparin vacutainer tubes. Donors have not taken NSAIDs or celecoxib within 48 hours or glucocorticoids within two weeks of the donation. All tubes/donor are pooled into 50 mL Falcon conical centrifuge tubes and 98 μL/well is distributed into 96-well tissue culture plates (Falcon 3072). […] The plates are incubated for 20-24 hours at 37° C. in a 5% CO2 humidified atmosphere. The plates are centrifuged at 1800×g, 10 minutes at 22° C., in an Eppendorf 5810R centrifuge. Plasma is removed from the cell layer and is transferred to v-bottom polypropylene plates. TNFα levels in 2 μL plasma are quantified by a commercially available enzyme immunoassay (R&D Systems DY210), using Immulon 4 HBX plates (Thermo 3855) and 3,3′,5,5′ tetramethylbiphenyl-4,4′-diamine substrate (KPL 50-76-03). The plates are read at A450-A650 on a plate reader (Molecular Devices Versamax) using SOFTmaxPRO (v. 4.3.1) software. IC50s are calculated using Graphpad Prism (v. 4) nonlinear regression, sigmoidal dose response curve fitting. Results are expressed as the geometric mean±standard deviation; n=number of independent determinations.

Sequence of human EP1 (P34995 whole entry, canonical isoform): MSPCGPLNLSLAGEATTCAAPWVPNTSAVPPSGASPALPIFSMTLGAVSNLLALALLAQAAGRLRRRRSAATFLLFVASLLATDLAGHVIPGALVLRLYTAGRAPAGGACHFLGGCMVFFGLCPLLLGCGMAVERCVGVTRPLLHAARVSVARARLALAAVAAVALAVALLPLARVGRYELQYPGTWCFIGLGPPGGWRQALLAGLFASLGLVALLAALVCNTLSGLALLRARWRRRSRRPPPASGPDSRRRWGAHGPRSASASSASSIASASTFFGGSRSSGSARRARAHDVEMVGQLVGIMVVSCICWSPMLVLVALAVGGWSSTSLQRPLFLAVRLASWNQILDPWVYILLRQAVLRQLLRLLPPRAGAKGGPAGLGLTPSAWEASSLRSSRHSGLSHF
Sequence of human EP2 (P43116 whole entry): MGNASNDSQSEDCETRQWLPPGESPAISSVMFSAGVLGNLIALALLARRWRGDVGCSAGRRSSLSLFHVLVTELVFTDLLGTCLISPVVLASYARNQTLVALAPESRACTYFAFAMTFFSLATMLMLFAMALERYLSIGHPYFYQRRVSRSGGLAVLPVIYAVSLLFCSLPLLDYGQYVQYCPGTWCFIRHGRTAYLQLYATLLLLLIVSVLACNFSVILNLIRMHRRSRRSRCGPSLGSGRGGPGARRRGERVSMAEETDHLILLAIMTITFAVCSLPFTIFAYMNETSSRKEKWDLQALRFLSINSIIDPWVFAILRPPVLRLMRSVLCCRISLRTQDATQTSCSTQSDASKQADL
Sequence of rat EP4 (P43114 whole entry): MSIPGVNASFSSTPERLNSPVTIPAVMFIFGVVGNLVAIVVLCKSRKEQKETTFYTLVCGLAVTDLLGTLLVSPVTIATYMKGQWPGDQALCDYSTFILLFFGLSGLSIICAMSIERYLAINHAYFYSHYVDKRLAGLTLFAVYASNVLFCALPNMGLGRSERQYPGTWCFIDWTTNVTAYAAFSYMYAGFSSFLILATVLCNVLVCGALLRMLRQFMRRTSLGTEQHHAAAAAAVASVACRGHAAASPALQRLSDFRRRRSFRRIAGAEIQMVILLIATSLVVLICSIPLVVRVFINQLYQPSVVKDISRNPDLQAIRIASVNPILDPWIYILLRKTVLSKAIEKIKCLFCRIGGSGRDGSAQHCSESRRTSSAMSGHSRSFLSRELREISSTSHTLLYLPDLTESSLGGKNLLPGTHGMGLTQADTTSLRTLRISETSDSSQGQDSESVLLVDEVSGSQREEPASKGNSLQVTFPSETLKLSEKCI
Sequence of human EP3 (isoform VI) (P43115 whole entry, looked up, canonical isoform): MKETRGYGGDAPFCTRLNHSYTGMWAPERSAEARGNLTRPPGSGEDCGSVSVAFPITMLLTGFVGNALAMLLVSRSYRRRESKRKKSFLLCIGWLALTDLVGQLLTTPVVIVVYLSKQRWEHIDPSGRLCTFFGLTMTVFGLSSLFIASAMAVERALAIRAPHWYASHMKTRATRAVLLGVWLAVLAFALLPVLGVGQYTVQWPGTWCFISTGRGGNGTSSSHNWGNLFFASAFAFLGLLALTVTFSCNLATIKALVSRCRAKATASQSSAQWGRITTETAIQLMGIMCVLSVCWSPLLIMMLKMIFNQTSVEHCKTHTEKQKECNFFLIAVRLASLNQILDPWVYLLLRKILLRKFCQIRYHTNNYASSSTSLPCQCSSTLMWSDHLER

Ki [1]: > 17500 nM
Ki [2]: > 18900 nM
Ki [3]: > 14000 nM
Ki [4]: 76 ± 47 nM
IC50 [5]: 5.6 ± 2.8 nM
IC50 [6]: 12 nM
IC50 [7]: 123 ± 81 nM
Structure (SMILES): Cc1ccc(N2CCC(O)CC2)nc1C(=O)Nc1c(C)cc(C(=O)O)cc1C [Example 1, 4-[[6-(4-hydroxy-1-piperidyl)-3-methyl-pyridine-2-carbonyl]amino]-3,5-dimethyl-benzoic acid]
